Experimental data published in PMC2867052 (Journal of contaminant hydrology, 2009).
Read-outs that look alike come from different tables or passages of the source.

Key:
[1] = format: physicochemical; details: for Dissolution Rate Coeff. (kL): model-calibrated initial value
[2] = format: physicochemical; details: for Sherwood Number (Sh): calculated from initial dissolution rate coefficient; for Dissolution Rate Coeff. (kL): model-calibrated initial value
[3] = 10% by weight HPCD
[4] = 1 Component - HPCD (10% by weight)
[5] = 3 Component - HPCD (10% by weight)
[6] = single-component organic liquid

SMILES | E-Normalized Rate Coeff. (kL/E) ([1]; 1 Component - HPCD) | Sherwood Number (Sh) [1, 4] | Dissolution Rate Coeff. (kL) [1, 4] | E-Normalized Rate Coeff. (kL/E) ([1]; 3 Component - HPCD) | Sherwood Number (Sh) [1, 5] | Dissolution Rate Coeff. (kL) [1, 5] | E-Normalized Rate Coeff. (kL/E) ([2]; 3 Component - Water) | Sherwood Number (Sh) ([2]; 3 Component - Water) | Dissolution Rate Coeff. (kL) ([2]; 3 Component - Water) | 10% HPCD Enhancement Factor (E°) [3, 6] | 10% HPCD Enhancement Factor (E°) ([3]; three-component organic liquid (Tol-EB-BB)) | E-Normalized Rate Coeff. (kL/E) ([2]; 1 Component - Water)
CCCCc1ccccc1 [butylbenzene] | 16 ± 2 h⁻¹ | 100 | 1902 ± 240 h⁻¹ | 15 ± 4 h⁻¹ | 82 | 1900 ± 490 h⁻¹ | 15 ± 11 h⁻¹ | 0.6 | 15 ± 11 h⁻¹ |  |  | 
CCc1ccccc1 [ethylbenzene] | 17 ± 3 h⁻¹ | 15 | 342 ± 57 h⁻¹ | 18 ± 3 h⁻¹ | 14 | 341 ± 57 h⁻¹ | 17 ± 3 h⁻¹ | 0.6 | 17 ± 3 h⁻¹ | 20 | 19 | 
Cc1ccccc1 [toluene, Toluene] | 21 ± 6 h⁻¹ | 6 | 161 ± 44 h⁻¹ | 21 ± 4 h⁻¹ | 6 | 165 ± 30 h⁻¹ | 21 ± 4 h⁻¹ |  | 21 ± 4 h⁻¹ | 7.7 |  | 22 ± 5 h⁻¹
